Source: patent publication US20090227619A1, “Harmine derivatives, intermediates used in their preparations, preparation processes and use therefo” (priority 2003, published 2009)
pIC50: −log10 of the molar value. Where two headings read alike, the source gives them in different places.

How the values were obtained:
[1] = test system: Hela; test: In vitro cytotoxicity, IC50 by MTT method, Hela; assay type: cell-based
Method: (§1) Culture medium powder RPMI1640 was dissolved in a proper amount of tri-distilled water according to the instruction of the product. […] It was the basic culture solution. The complete culture solution was added with FBS having a final concentration of 10%, 100 U/ml penicillin and 100 µg/ml streptomycin. The solution was fully stirred by a magnetic blender, and the pH of the solution was adjusted to 6.8-7.0. The volume was kept constant. After being filtered and disinfected, the solution was kept into several containers which were sealed and stored at 4° C.
(§2) The cells were placed in a culture dish followed by the addition of complete culture liquid RPMI1640 and then cultured in a incubator comprising 5% CO2 at 37° C. In the exponential growth phase, the cells grew vigorously. If the culture liquid became yellow, the liquid should be replaced instantly.
(§3) The cells, at a concentration of 10^5/ml, were inoculated at a 96-pore culture plate. In each pore, 100 μl cells were inoculated. The cells were placed in a CO2 incubator until the cells were in the logarithmic growth phase. The samples to be tested were added according to the preset concentration gradient. For each gradient, the test was conducted at least three times. An equivalent amount of solvent for dissolving the samples was added in the control group. After 48 h of culture, each pore was added 20 μl MTT (5 mg/ml). The cells were cultured at 37° C. for 4 h. After the supernatant was carefully removed, 100 μl DMSO was added in each pore. The plate was agitated for about 10 minutes such that the precipitates were dissolved. After that, OD value was identified with a Microplate Reader at the wavelength of 490 nm. The survival rate of the cells at various concentrations was calculated according to the following formula:
(§4) Survival rate %=average OD value of the sample group/average OD value of the control group×100%
(§5) Plots of log survival rate of the cells vs. concentration of the medicament were constructed, and the IC50 value of each sample was calculated according to graphing methods.

[2] = test system: Kunming mice;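 also: acute toxicity in Kunming mice grouped by sex, one intraperitoneal dose at five graded levels in Tween-80 plus 0.5% CMC-Na, deaths monitored over two weeks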
[3] = test system: BGC-823; test: In vitro cytotoxicity, IC50 by MTT method, BGC-823; assay type: cell-based
Method: as §1, §2, §3, §4, §5

[4] = test system: HepG2; test: In vitro cytotoxicity, IC50 by MTT method, HepG2; assay type: cell-based, human
Method: as §1, §2, §3, §4, §5

[5] = test system: Bel-7402; test: In vitro cytotoxicity, IC50 by MTT method, Bel-7402; assay type: cell-based
Method: as §1, §2, §3, §4, §5

[6] = test system: NIH3T3; test: In vitro cytotoxicity, IC50 by MTT method, NIH3T3; assay type: cell-based
Method: as §1, §2, §3, §4, §5

[7] = test system: Lovo; test: In vitro cytotoxicity, IC50 by MTT method, Lovo; assay type: cell-based
Method: as §1, §2, §3, §4, §5

[8] = test system: S180 sarcoma; details: S180 sarcoma; for Body weight of the animals, beginning, First time / Body weight of the animals, end, First time / Inhibition rate, First time / Weight of the tumor X ± SD, First time / Body weight of the animals, beginning, Second time / Body weight of the animals, end, Second time / Inhibition rate, Second time: ip × 10qd
[9] = test system: PLA-801; test: In vitro cytotoxicity, IC50 by MTT method, PLA-801; assay type: cell-based
Method: as §1, §2, §3, §4, §5

[10] = test system: Lewis lung cancer; details: Lewis lung cancer; for Body weight of the animals, end, First time / Body weight of the animals, end, Second time: ip × 10qd;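 as to all read-outs here: mice implanted subcutaneously in the axilla with Lewis lung tumor cells, treated starting the following day, killed roughly three weeks after implantation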
[11] = Homo sapiens, Hela, MTT, read-out: IC50
[12] = Homo sapiens, BGC-823, BGC823, MTT, read-out: IC50
[13] = Homo sapiens, HepG2, MTT, read-out: IC50
[14] = Homo sapiens, Bel-7402, BeI7402, MTT, read-out: IC50
[15] = Mus musculus, NIH3T3, MTT, read-out: IC50
[16] = Homo sapiens, Lovo, MTT, read-out: IC50

2,9-dibenzyl-3-ethoxycarbonyl-β-carbolinium bromate [Compound 86]
pIC50 ([1]; Hela cell strain, read-out: IC50 Hela): 4.52
LD50 ([2]; 50% male 50% female mice, single i.p.): 65.7 mg/kg
LD50 ([2]; mouse, in vivo, ip): 58.2 to 74.1 mg/kg
LD50 ([2]; summary Table 34, present tests, mice i.p.): 65.7
pIC50 ([3]; BGC823 cell strain, read-out: IC50 BGC823): 4.40
pIC50 ([4]; HepG2 cell strain, read-out: IC50 HepG2): 4.40
pIC50 ([5]; Bel7402 cell strain, read-out: IC50 Bel7402): 4.30
pIC50 ([6]; NIH3T3 cell strain, read-out: IC50 NIH3T3): 4.70
pIC50 ([7]; Lovo cell strain, read-out: IC50 Lovo): 4.70
Body weight of the animals, beginning, First time ([8]; Dosage 10 (mg/ml)): 19.3 g
Body weight of the animals, end, First time ([8]; Dosage 10 (mg/ml)): 24.5 g
Inhibition rate, First time ([8]; Dosage 10 (mg/ml)): 31.09%
Weight of the tumor X ± SD, First time ([8]; Dosage 10 (mg/ml)): 1.84 ± 0.16 g
Body weight of the animals, beginning, Second time ([8]; Dosage 10 (mg/ml)): 18.7 g
Body weight of the animals, end, Second time ([8]; Dosage 10 (mg/ml)): 24.9 g
Inhibition rate, Second time ([8]; Dosage 10 (mg/ml)): 28.89%
Weight of the tumor X ± SD, Second time ([8]; Dosage 10, ip × 10qd): 1.92 ± 0.20 g
Body weight of the animals, beginning, First time ([8]; Dosage 20 (mg/ml)): 19.0 g
Body weight of the animals, end, First time ([8]; Dosage 20 (mg/ml)): 23.7 g
Inhibition rate, First time ([8]; Dosage 20 (mg/ml)): 38.95%
Weight of the tumor X ± SD, First time ([8]; Dosage 20 (mg/ml)): 1.63 ± 0.26 g
Body weight of the animals, beginning, Second time ([8]; Dosage 20 (mg/ml)): 18.9 g
Body weight of the animals, end, Second time ([8]; Dosage 20 (mg/ml)): 24.4 g
Inhibition rate, Second time ([8]; Dosage 20 (mg/ml)): 41.11%
Weight of the tumor X ± SD, Second time ([8]; Dosage 20, ip × 10qd): 1.59 ± 0.17 g
Inhibition rate (%) S180 sarcomata ([8]; comparison table 43, in vivo): 41.11%
pIC50 ([9]; PLA-801 cell strain, read-out: IC50 PLA-801): 5.00
Body weight of the animals, end, First time ([10]; Dosage 10 (mg/ml)): 24.5 g
Body weight of the animals, end, Second time ([10]; Dosage 10 (mg/ml)): 25.1 g
Body weight of the animals, beginning, First time ([10]; Dosage 10, ip × 10qd): 20.2 g
Inhibition rate, First time ([10]; Dosage 10, ip × 10qd): 34.98%
Weight of the tumor X ± SD, First time ([10]; Dosage 10, ip × 10qd): 1.58 ± 0.11 g
Body weight of the animals, beginning, Second time ([10]; Dosage 10, ip × 10qd): 19.1 g
Inhibition rate, Second time ([10]; Dosage 10, ip × 10qd): 37.20%
Weight of the tumor X ± SD, Second time ([10]; Dosage 10, ip × 10qd): 1.84 ± 0.17 g
Body weight of the animals, end, First time ([10]; Dosage 20 (mg/ml)): 25.2 g
Body weight of the animals, end, Second time ([10]; Dosage 20 (mg/ml)): 23.9 g
Body weight of the animals, beginning, First time ([10]; Dosage 20, ip × 10qd): 20.0 g
Inhibition rate, First time ([10]; Dosage 20, ip × 10qd): 41.56%
Weight of the tumor X ± SD, First time ([10]; Dosage 20, ip × 10qd): 1.42 ± 0.11 g
Body weight of the animals, beginning, Second time ([10]; Dosage 20, ip × 10qd): 18.7 g
Inhibition rate, Second time ([10]; Dosage 20, ip × 10qd): 45.05%
Weight of the tumor X ± SD, Second time ([10]; Dosage 20, ip × 10qd): 1.61 ± 0.17 g
Inhibition rate (%) Lewis cancer ([10]; comparison table 43, in vivo): 41.56%

CCOC(=O)c1cc2c([nH]c3ccccc32)c(CC)n1 [Compound 12, ethyl 1-ethyl-β-carboline-3-carboxylate]
pIC50 [1, 11]: < 2.52
pIC50 [3, 12]: < 2.52
pIC50 [4, 13]: < 2.52
pIC50 [5, 14]: < 2.52
pIC50 [6, 15]: < 2.52
pIC50 [7, 16]: 2.80
pIC50 ([9]; PLA-801, MTT, read-out: IC50): < 2.52
melting point: 209 to 210 °C

CCCc1nc(C(=O)OCC)cc2c1[nH]c1ccccc12 [Compound 13, ethyl 1-propyl-β-carboline-3-carboxylate]
pIC50 [1, 11]: < 2.52
pIC50 [3, 12]: < 2.52
pIC50 [4, 13]: 2.97
pIC50 [5, 14]: < 2.52
pIC50 [6, 15]: 3.12
pIC50 [7, 16]: 3.13
pIC50 ([9]; PLA-801, MTT, read-out: IC50): 3.17
melting point: 194 to 195 °C
